Results published in US10532054B2, “Compounds for the prevention and treatment of cardiovascular diseases” (Resverlogix Corp., priority 2007, dated 2020).
Structures can show the parent of a compound that is named as a salt.

Tested on: not given
Experiment: not given
Conditions: subjects with low HDL-C; cited from earlier work

Row | Compound | increase in the HDL-C level [%] | reduction of the CHD risk [%]
1 | Cc1ccc(C)c(OCCCC(C)(C)C(=O)O)c1 [gemfibrozil] | 6 | 22

Tested on: ApoA-I mRNA
Experiment: Quantification of ApoA-I mRNA in HepG2 cells
Format: cell-based
Parameters: key: Active: An active compound is one that causes a >15% increase in ApoA-I mRNA at a concentration less than or equal to 100 uM
Conditions: concentration less than or equal to 100 uM
Description: In this example, ApoA-I mRNA in tissue culture cells was quantitated to measure the transcriptional up-regulation of ApoA-I when treated with a compound of the invention.
HepG2 cells (˜2×10^5 per well) were placed in a 24-well plate in ˜400 μL MEM, supplemented with 0.5% (v/v) FBS, 24 h before addition of the compound of interest. At time of harvesting, the spent media was removed from the HepG2 cells and immediately placed on ice (for immediate use) or at −80° C. (for future use) in ApoA-I and albumin ELISAs. The cells remaining in the plate wells were rinsed in 200 μL PBS. PBS was carefully removed to avoid removing any loosely attached cells.
Once the PBS was removed, 85 μL cell lysis solution was added the cells in each well and incubated for 5-10 min at room temperature, to allow for complete cell lysis and detachment. mRNA was then prepared using the “mRNA Catcher PLUS plate” from Invitrogen, according to the protocol supplied. […]
The eluted mRNA isolated was then used in a one-step real-time […] reaction, using components of the Ultra Sense Kit together with Applied Biosystems primer-probe mixes. Real-time PCR data was analyzed, using the Ct values, to determine the fold induction of each unknown sample, relative to the control (that is, relative to the control for each independent DMSO concentration). […]

Row | Compound | Effect on ApoA-I mRNA levels
2 | 4-(1-Oxo-1,2-dihydroisoquinolin-3)phenyl 2-amino-5-guanidinopentanoate trihydrochloride [Example 4] | Active

Tested on: not given
Experiment: not given
Conditions: following oral administration; cited from earlier work

Row | Compound | intestinal absorption
3 | O=c1c(O)c(-c2ccc(O)c(O)c2)oc2cc(O)cc(O)c12 [quercetin] | less than 1%

Tested on: not given
Experiment: not given
Conditions: not given

Row | Compound | melting point
4 | COc1cc(OC)c2c(=O)[nH]c(-c3cccnc3)nc2c1 (as salt: hydrochloride) [Example 27, 5,7-dimethoxy-2-(pyridin-3-yl)quinazolin-4(3H)-one] | 257 to 259 °C
5 | COc1cc(OC)c2c(=O)[nH]c(-c3cc(C)c(OCCN4CCOCC4)c(C)c3)cc2n1 [Example 50, 7-(3,5-dimethyl-4-(2-morpholinoethoxy)phenyl)-2,4-dimethoxy-1,6-naphthyridin-5(6H)-one] | 212.5 to 212.9 °C
6 | O=c1[nH]c(-c2ccc3c(c2)OCCO3)nc2ccccc12 [Example 36, 2-(2,3-dihydrobenzo[b][1,4]dioxin-6-yl)quinazolin-4(3H)-one] | 267 to 268 °C (dec.)
7 | COc1cc(OC)c2c(=O)[nH]c(-c3ccc(CN4CCOCC4)cc3)nc2c1 (as salt: hydrochloride) [Example 66, 5,7-dimethoxy-2-(4-(morpholinomethyl)phenyl)quinazolin-4(3H)-one] | 206 to 208 °C (dec.)
8 | COCCOc1c(C)cc(-c2nc3cc(OC)cc(OC)c3c(=O)[nH]2)cc1C [Example 79, 5,7-dimethoxy-2-(4-(2-methoxyethoxy)-3,5-dimethylphenyl)quinazolin-4(3H)-one] | 201 to 202 °C
9 | Cc1cc(-c2cc3nc(OC(C)C)cc(OC(C)C)c3c(=O)[nH]2)cc(C)c1O [Example 74, 7-(4-hydroxy-3,5-dimethylphenyl)-2,4-diisopropoxy-1,6-naphthyridin-5(6H)-one] | 206 to 208 °C
10 | COc1cc(OC)c2c(=O)[nH]c(-c3cc(C)c(O)c(C)c3)cc2n1 (as salt: HCl) [Example 16, 7-(4-hydroxy-3,5-dimethylphenyl)-2,4-dimethoxy-1,6-naphthyridin-5(6H)-one] | > 324 °C
11 | CC(=O)Nc1ccc2nc(-c3cc(C)c(OCCO)c(C)c3)[nH]c(=O)c2c1 [Example 73, N-(2-(4-(2-hydroxyethoxy)-3,5-dimethylphenyl)-4-oxo-3,4-dihydroquinazolin-6-yl)acetamide] | > 300 °C
12 | COc1cc2nc(-c3cc(C)c(O)c(C)c3)[nH]c(=O)c2cc1OC [Example 52, 2-(4-hydroxy-3,5-dimethylphenyl)-6,7-dimethoxyquinazolin-4(3H)-one] | > 300 °C
13 | COc1cc(OC)cc(-c2nc3cc(OC)cc(OC)c3c(=O)[nH]2)c1 [Example 29, 2-(3,5-dimethoxyphenyl)-5,7-dimethoxyquinazolin-4(3H)-one] | 270 to 272 °C
14 | Cc1cc(-c2cc3ncccc3c(=O)[nH]2)cc(C)c1O (as salt: HCl) [Example 8, 7-(4-hydroxy-3,5-dimethylphenyl)-1,6-naphthyridin-5(6H)-one] | > 350 °C
15 | COc1cc2c(c(OC)c1)S(=O)(=O)NC(c1cc(C)c(O)c(C)c1)=C2 [Example 15, 6,8-dimethoxy-3-(4-hydroxy-3,5-dimethylphenyl)-2H-1,2-benzothiazine-1,1-dioxide] | 246.6 to 247.4 °C
16 | COc1cc(OC)c2c(=O)[nH]c(-c3ccc(CCC(=O)O)cc3)nc2c1 [Example 53, 3-(4-(5,7-dimethoxy-4-oxo-3,4-dihydroquinazolin-2-yl)phenyl)propanoic acid] | 250.6 to 251.1 °C
17 | O=c1[nH]c(-c2ccc(N(CCO)CCO)cc2)nc2ccccc12 [Example 45, 2-(4-(bis(2-hydroxyethyl)amino)phenyl)quinazolin-4(3H)-one] | 228 to 230 °C
18 | COc1cc(OC)c2c(=O)nc(-c3cc(C)c(O)c(C)c3)n(C)c2c1 [Example 71, 2-(4-hydroxy-3,5-dimethylphenyl)-5,7-dimethoxy-1-methylquinazolin-4(1H)-one] | 188.5 to 189.1 °C
19 | Cc1cc(-c2cc3ccc(CN4CCOCC4)cc3c(=O)[nH]2)cc(C)c1O (as salt: hydrochloride) [Example 11, 3-(4-hydroxy-3,5-dimethylphenyl)-7-(morpholinomethyl)isoquinolin-1(2H)-one] | 281 to 283 °C
20 | COc1cc(OC)c2c(=O)[nH]c(-c3ccc(O)cc3)cc2c1 [Example 6, 3-(4-hvdroxyphenyl)-6,8-dimethoxyisoquinolin-1(2H)-one] | 245 to 247 °C
21 | COc1ccc(-c2nc3cc(OC)cc(OC)c3c(=O)[nH]2)cc1 [Example 30, 5,7-dimethoxy-2-(4-methoxyphenyl)quinazolin-4(3H)-one] | 276 to 277 °C
22 | COc1cc(OC)c2cnc(-c3cc(C)c(OCCO)c(C)c3)nc2c1 [Example 76, 2-(4-(5,7-dimethoxyquinazolin-2-yl)-2,6-dimethylphenoxy)ethanol] | 169 to 170 °C
23 | COc1cc2nc(-c3ccc4c(c3)OCCO4)[nH]c(=O)c2cc1OC [Example 48, 2-(2,3-dihydrobenzo[b][1,4]dioxin-6-yl)-6,7-dimethoxyquinazolin-4(3H)-one] | 316.4 to 318.2 °C
24 | COc1cc(OC)c2c(=O)[nH]c(-c3ccc(N(CCO)CCO)cc3)nc2c1 [Example 46, 2-(4-(bis(2-hydroxyethyl)amino)phenyl)-5,7-dimethoxyquinazolin-4(3H)-one] | 249 to 251 °C
25 | COc1cc(OC)c2c(=O)[nH]c(-c3ccc(N(C)C)c4ccccc34)nc2c1 [Example 37, 2-(4-(dimethylamino)naphthalen-1-yl)-5,7-dimethoxyquinazolin-4(3H)-one] | 269 to 271 °C
